Laboratory results as given in ChEMBL document CHEMBL1201862, “PubChem BioAssay data set” (2004).
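Compound exposure: 48 hours, 5 concentrations, 96-well plates. Here, GI50 denotes the concentration required for 50% inhibition of growth.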 Active and inactive are the calls of the source. Cut-off read from the data, not from the text of the source: active = GI50 up to about 1.1 µM and inactive = higher.

Columns and labels:
Assay in all cases: NCI tumour cell line growth inhibition, 48 h
[1] = tested on: ACHN
[2] = tested on: NCI-H226
[3] = tested on: HCT-116
[4] = tested on: RXF 393
[5] = tested on: U-251
[6] = tested on: MDA-MB-435
[7] = tested on: K562
[8] = tested on: UACC-62
[9] = tested on: NCI-H460
[10] = tested on: CCRF-CEM
[11] = tested on: SNB-75
[12] = tested on: COLO 205
[13] = tested on: SF-268
[14] = tested on: MCF7
[15] = tested on: SW-620
[16] = tested on: HCT-15
[17] = tested on: Malme-3M
[18] = tested on: SR
[19] = tested on: 786-0
[20] = tested on: SK-MEL-28
[21] = tested on: MOLT-4
[22] = tested on: TK-10
[23] = tested on: NCI-H23
[24] = tested on: OVCAR-4
[25] = tested on: MDA-N
[26] = tested on: OVCAR-3
[27] = tested on: IGROV-1
[28] = tested on: MDA-MB-231
[29] = tested on: UACC-257
[30] = tested on: HT-29
[31] = tested on: SK-OV-3
[32] = tested on: OVCAR-8
[33] = tested on: Hs-578T
[34] = tested on: NCI/ADR-RES
[35] = tested on: SK-MEL-2
[36] = tested on: EKVX
[37] = tested on: DU-145
[38] = tested on: SF-295
[39] = tested on: T47D
[40] = tested on: UO-31
[41] = tested on: BT-549
[42] = tested on: NCI-H522
[43] = tested on: HOP-62
[44] = tested on: PC-3
[45] = tested on: SNB-19
[46] = tested on: SK-MEL-5
[47] = tested on: M14
[48] = tested on: A549
[49] = tested on: LOX IMVI
[50] = tested on: A498
[51] = tested on: KM12
[52] = tested on: HCC 2998
[53] = tested on: SN12C
[54] = tested on: OVCAR-5
[55] = tested on: RPMI-8226
[56] = tested on: CAKI-1
[57] = tested on: SF-539
[58] = tested on: HL-60

O=C(O)Cc1ccc2c(c1)/C(=C1/Nc3ccccc3C1=O)C(=O)N2
GI50 [1]: 32.5 µM (inactive) | GI50 [2]: 60.8 µM (inactive) | GI50 [3]: 24 µM (inactive) | GI50 [4]: 17.2 µM (inactive) | GI50 [5]: 39.6 µM (inactive) | GI50 [6]: 36.1 µM (inactive) | GI50 [7]: 19.2 µM (inactive) | GI50 [8]: 24.4 µM (inactive) | GI50 [9]: 56.2 µM (inactive) | GI50 [10]: 34.4 µM (inactive) | GI50 [11]: 26.1 µM (inactive) | GI50 [12]: 35.1 µM (inactive) | GI50 [13]: 58.2 µM (inactive) | GI50 [14]: 10.8 µM (inactive) | GI50 [15]: 46.2 µM (inactive) | GI50 [16]: 27.6 µM | GI50 [17]: 27.4 µM (inactive) | GI50 [18]: 21.9 µM (inactive) | GI50 [19]: 27.5 µM (inactive) | GI50 [20]: 54.3 µM (inactive) | GI50 [21]: 25.8 µM (inactive) | GI50 [22]: > 100 µM (inactive) | GI50 [23]: 39.6 µM (inactive) | GI50 [24]: 21.9 µM (inactive) | GI50 [25]: 38.4 µM (inactive) | GI50 [26]: 14.1 µM (inactive) | GI50 [27]: 0.355 µM (active) | GI50 [28]: > 100 µM (inactive) | GI50 [29]: 32.3 µM (inactive) | GI50 [30]: 38.8 µM (inactive) | GI50 [31]: 23.4 µM (inactive) | GI50 [32]: 32 µM (inactive) | GI50 [33]: 27.8 µM (inactive) | GI50 [34]: > 100 µM (inactive) | GI50 [35]: 40.9 µM (inactive) | GI50 [36]: 26.2 µM (inactive) | GI50 [37]: 49.9 µM (inactive) | GI50 [38]: 80.5 µM (inactive) | GI50 [39]: 7.71 µM (inactive) | GI50 [40]: 49 µM (inactive) | GI50 [41]: 44.5 µM (inactive) | GI50 [42]: 35 µM (inactive) | GI50 [43]: 51.8 µM (inactive) | GI50 [44]: 28.6 µM (inactive) | GI50 [45]: 66.2 µM (inactive) | GI50 [46]: 20.7 µM (inactive) | GI50 [47]: 36.6 µM (inactive) | GI50 [48]: 80.9 µM (inactive) | GI50 [49]: 20 µM (inactive) | GI50 [50]: 31.7 µM (inactive) | GI50 [51]: 29.2 µM (inactive) | GI50 [52]: 36.5 µM (inactive) | GI50 [53]: 56.1 µM (inactive) | GI50 [54]: > 100 µM (inactive) | GI50 [55]: 27.9 µM (inactive) | GI50 [56]: 24.8 µM (inactive)

O=C1N(c2ccccc2)C(=S)/C(=C/c2ccc(Cl)cc2)N1c1ccc(Cl)cc1
GI50 [1]: 19.1 µM (inactive) | GI50 [3]: 20 µM (inactive) | GI50 [4]: 33.2 µM (inactive) | GI50 [5]: 28.1 µM (inactive) | GI50 [6]: 35.6 µM (inactive) | GI50 [7]: 41.9 µM (inactive) | GI50 [8]: 15.8 µM (inactive) | GI50 [9]: > 100 µM (inactive) | GI50 [10]: 18.1 µM (inactive) | GI50 [11]: 12.6 µM (inactive) | GI50 [12]: 27.5 µM (inactive) | GI50 [13]: 46.9 µM (inactive) | GI50 [14]: 81.1 µM (inactive) | GI50 [15]: 36.1 µM (inactive) | GI50 [16]: 26.9 µM | GI50 [17]: 20.6 µM (inactive) | GI50 [18]: 0.571 µM (active) | GI50 [19]: 23.2 µM (inactive) | GI50 [20]: 34.8 µM (inactive) | GI50 [21]: 0.923 µM (active) | GI50 [22]: 26.7 µM (inactive) | GI50 [23]: 44.3 µM (inactive) | GI50 [24]: 28.2 µM (inactive) | GI50 [25]: 32.9 µM (inactive) | GI50 [26]: 35.2 µM (inactive) | GI50 [27]: 41.3 µM (inactive) | GI50 [57]: 21.1 µM (inactive) | GI50 [28]: 27 µM (inactive) | GI50 [29]: 55.8 µM (inactive) | GI50 [30]: 59.3 µM (inactive) | GI50 [31]: 27.1 µM (inactive) | GI50 [32]: 33.6 µM (inactive) | GI50 [33]: 27 µM (inactive) | GI50 [34]: 77.3 µM (inactive) | GI50 [35]: 43.7 µM (inactive) | GI50 [36]: 38.5 µM (inactive) | GI50 [37]: 53 µM (inactive) | GI50 [38]: 38.4 µM (inactive) | GI50 [39]: 63.8 µM (inactive) | GI50 [40]: 28.5 µM (inactive) | GI50 [41]: 44.4 µM (inactive) | GI50 [42]: 15.9 µM (inactive) | GI50 [43]: 32.2 µM (inactive) | GI50 [44]: > 100 µM (inactive) | GI50 [45]: 48.4 µM (inactive) | GI50 [46]: 46.6 µM (inactive) | GI50 [47]: 61.9 µM (inactive) | GI50 [48]: > 100 µM (inactive) | GI50 [49]: 22.2 µM (inactive) | GI50 [50]: 79.8 µM (inactive) | GI50 [51]: 52 µM (inactive) | GI50 [52]: > 100 µM (inactive) | GI50 [58]: 32.5 µM (inactive) | GI50 [53]: 52 µM (inactive) | GI50 [54]: 78.3 µM (inactive) | GI50 [55]: 18.3 µM (inactive) | GI50 [56]: > 100 µM (inactive)
